Laboratory results reported in patent US8927297B2, “Methods to measure dissociation rates for ligands that form reversible covalent bonds” (Janssen Pharmaceutica N.V., priority 2009, dated 2015).

biological target: T1, ERR-α (Homo sapiens, UniProt P11474); assay: LC/MS kinetics of association and dissociation for ligands forming a covalent bond to Cys325 of ERR-α; type: binding; settings: dissociation rate by LC/MS with 20-fold excess Compound 2 as competing ligand; 37° C.
T1 construct: made in house; host or cells: Spodoptera frugiperda (Sf9) insect cells, baculovirus
T1 sequence (P11474 with tags, fused parts or gaps): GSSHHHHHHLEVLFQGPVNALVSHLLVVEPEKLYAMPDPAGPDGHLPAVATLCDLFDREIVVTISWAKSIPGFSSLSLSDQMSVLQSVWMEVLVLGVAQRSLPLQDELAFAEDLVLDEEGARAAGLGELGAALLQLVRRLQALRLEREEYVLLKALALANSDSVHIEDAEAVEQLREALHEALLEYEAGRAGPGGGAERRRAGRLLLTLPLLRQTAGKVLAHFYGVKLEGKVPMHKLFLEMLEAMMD
Description: The progress of the reaction was also expressed as a fraction of the area observed for the complex of ERR-α and the competing ligand over the sum of total area for the complex of ERR-α with the ligand and the complex of ERR-α with the competing ligand.
where k is the apparent rate constant.

| kd | Compound |
| --- | --- |
| 2.19e-05 s⁻¹ | CN1CCN(C2=NC(=O)/C(=C/c3ccc(Oc4ccc(C#N)cc4C(F)(F)F)c(F)c3)S2)CC1 [Compound 4] |
| 1.53e-05 s⁻¹ | COc1cc(/C=C2\SC(N3CCN(C)CC3)=NC2=O)ccc1Oc1ccc(C#N)cc1C(F)(F)F [Compound 3] |
| 2.05e-05 s⁻¹ | COc1cc(/C=C2\SC(N)=NC2=O)ccc1Oc1ccc(C#N)cc1C(F)(F)F [Compound 5] |

| Compound | kd |
| --- | --- |
| COc1cc(/C=C2\SC(=O)NC2=O)ccc1Oc1ccc(C#N)cc1C(F)(F)F [Compound 1] | 1.1e-05 s⁻¹ |
